ChEMBL document CHEMBL2331549, “Cyclopropyl- and methyl-containing inhibitors of neuronal nitric oxide synthase” (Bioorg Med Chem, 2013)

Legend:
Nitric oxide synthase 1 = Nitric oxide synthase 1 (Rattus norvegicus, UniProt P29476); test: Inhibition of rat nNOS expressed in Escherichia coli using L-arginine as substrate assessed as formation of nitric oxide by hemoglobin capture assay
[1] = target: T1, Nitric oxide synthase, inducible (Mus musculus, UniProt P29477); test: Inhibition of mouse iNOS expressed in Escherichia coli using L-arginine as substrate assessed as formation of nitric oxide by hemoglobin capture assay
T1 sequence (P29477 whole entry): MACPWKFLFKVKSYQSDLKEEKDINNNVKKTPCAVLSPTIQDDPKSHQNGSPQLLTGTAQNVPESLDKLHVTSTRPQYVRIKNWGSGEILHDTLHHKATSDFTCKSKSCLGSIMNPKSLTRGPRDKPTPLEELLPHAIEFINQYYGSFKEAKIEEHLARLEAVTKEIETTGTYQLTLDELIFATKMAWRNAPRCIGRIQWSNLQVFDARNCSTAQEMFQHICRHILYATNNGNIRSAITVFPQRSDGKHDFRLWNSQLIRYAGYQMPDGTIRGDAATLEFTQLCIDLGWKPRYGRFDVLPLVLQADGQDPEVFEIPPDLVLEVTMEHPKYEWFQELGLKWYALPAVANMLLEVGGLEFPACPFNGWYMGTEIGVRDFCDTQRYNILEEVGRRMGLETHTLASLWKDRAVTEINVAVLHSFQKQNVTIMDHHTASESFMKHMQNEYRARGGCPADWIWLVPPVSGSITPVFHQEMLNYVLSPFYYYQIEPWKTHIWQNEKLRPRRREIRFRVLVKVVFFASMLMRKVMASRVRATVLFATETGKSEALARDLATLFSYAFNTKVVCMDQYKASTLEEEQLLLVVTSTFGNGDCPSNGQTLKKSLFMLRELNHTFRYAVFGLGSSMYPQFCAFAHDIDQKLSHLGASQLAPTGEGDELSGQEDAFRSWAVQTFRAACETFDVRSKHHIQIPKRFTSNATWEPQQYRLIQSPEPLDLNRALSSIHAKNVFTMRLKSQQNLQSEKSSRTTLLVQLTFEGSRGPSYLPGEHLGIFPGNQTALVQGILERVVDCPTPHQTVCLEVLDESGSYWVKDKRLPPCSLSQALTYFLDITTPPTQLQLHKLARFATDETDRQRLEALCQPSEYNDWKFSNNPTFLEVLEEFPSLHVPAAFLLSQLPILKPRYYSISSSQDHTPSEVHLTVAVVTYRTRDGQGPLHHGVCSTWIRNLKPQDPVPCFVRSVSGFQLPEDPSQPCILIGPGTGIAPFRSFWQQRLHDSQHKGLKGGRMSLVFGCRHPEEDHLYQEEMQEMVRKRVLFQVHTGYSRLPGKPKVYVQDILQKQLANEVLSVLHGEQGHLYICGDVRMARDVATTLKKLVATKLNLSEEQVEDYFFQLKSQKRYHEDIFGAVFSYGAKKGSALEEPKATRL

[2] = Selectivity ratio of Ki for rat nNOS to Ki for mouse iNOS
Nitric oxide synthase 3 = target: T2, Nitric oxide synthase 3 (Bos taurus, UniProt P29473); test: Inhibition of bovine eNOS expressed in Escherichia coli using L-arginine as substrate assessed as formation of nitric oxide by hemoglobin capture assay
T2 sequence (P29473 whole entry): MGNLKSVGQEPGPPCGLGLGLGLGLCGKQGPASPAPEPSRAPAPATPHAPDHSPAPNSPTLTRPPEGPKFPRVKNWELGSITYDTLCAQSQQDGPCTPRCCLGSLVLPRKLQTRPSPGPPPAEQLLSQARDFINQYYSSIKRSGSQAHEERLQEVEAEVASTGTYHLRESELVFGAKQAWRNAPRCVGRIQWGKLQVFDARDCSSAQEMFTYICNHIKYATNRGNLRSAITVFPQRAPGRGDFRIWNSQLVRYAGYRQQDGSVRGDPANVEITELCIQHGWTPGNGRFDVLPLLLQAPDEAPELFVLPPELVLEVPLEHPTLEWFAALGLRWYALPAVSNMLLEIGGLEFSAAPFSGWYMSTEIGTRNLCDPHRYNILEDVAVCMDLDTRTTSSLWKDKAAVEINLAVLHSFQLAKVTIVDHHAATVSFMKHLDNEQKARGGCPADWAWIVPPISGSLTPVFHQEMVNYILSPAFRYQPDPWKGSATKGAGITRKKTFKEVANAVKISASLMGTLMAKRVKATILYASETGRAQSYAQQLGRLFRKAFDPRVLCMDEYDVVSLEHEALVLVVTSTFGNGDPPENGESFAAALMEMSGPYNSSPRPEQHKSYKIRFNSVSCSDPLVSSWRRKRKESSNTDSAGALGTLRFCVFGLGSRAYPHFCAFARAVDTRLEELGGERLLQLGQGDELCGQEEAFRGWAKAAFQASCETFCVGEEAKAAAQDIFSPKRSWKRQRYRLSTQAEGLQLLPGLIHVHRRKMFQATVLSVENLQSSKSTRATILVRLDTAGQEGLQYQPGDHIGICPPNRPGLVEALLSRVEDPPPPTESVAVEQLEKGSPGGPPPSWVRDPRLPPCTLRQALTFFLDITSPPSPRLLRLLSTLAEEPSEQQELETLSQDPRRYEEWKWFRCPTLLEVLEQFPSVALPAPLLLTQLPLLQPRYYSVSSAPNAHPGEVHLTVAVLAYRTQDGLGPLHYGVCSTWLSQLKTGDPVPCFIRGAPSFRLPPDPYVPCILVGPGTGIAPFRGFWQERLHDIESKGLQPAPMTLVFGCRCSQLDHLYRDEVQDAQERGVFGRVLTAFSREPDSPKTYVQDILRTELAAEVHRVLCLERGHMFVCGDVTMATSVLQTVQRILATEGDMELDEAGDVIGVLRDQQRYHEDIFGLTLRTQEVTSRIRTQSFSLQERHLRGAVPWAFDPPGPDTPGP

[3] = Selectivity ratio of Ki for rat nNOS to Ki for bovine eNOS

Chain of Nitric oxide synthase 1 (P29476 whole entry): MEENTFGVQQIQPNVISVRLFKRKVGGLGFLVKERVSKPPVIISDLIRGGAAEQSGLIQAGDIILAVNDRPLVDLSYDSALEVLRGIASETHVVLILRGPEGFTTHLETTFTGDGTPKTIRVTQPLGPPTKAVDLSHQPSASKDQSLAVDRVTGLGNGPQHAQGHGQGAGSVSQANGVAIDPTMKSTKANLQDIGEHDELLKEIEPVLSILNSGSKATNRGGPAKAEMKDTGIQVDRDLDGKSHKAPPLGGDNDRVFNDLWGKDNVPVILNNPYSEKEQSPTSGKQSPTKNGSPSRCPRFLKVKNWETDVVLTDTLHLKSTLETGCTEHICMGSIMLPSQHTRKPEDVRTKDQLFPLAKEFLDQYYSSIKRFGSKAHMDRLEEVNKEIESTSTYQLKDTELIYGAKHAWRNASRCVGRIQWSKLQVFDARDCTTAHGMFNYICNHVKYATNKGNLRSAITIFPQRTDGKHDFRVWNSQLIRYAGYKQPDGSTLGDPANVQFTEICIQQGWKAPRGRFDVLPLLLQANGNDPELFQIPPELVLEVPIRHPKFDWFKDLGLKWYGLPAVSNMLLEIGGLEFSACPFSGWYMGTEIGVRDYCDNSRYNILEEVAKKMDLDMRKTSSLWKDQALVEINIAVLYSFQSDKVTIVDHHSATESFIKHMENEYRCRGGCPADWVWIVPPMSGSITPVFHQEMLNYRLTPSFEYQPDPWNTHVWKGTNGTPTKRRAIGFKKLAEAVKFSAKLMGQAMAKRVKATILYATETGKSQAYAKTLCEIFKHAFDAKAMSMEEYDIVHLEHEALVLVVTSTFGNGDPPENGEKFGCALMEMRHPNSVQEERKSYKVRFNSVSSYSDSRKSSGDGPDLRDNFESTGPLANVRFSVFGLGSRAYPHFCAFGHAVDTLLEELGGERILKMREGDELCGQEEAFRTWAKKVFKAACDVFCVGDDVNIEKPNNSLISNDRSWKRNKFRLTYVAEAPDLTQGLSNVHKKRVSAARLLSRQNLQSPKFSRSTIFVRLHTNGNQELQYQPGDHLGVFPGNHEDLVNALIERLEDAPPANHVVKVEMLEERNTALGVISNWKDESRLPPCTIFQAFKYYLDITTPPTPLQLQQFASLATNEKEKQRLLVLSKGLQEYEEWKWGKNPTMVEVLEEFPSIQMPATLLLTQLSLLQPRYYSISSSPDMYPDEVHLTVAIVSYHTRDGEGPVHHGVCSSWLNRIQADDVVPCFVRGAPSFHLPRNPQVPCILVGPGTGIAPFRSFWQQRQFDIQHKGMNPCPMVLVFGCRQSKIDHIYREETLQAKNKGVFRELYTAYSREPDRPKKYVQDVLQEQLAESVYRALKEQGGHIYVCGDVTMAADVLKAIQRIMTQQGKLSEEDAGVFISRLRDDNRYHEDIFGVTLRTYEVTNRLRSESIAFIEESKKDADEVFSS

Row | Structure (SMILES) | Ki (Nitric oxide synthase 1) [µM] | Ki [1] [µM] | Ratio Ki [2] | Ki (Nitric oxide synthase 3) [µM] | Ratio Ki [3]
1 | Cc1cc(N)nc(C[C@@H]2CNC[C@@H]2OCCN[C@H](C)Cc2cccc(F)c2)c1 | 0.07 | 7.6 | 110 | 40 | 570
2 | Cc1cc(N)nc(C[C@@H]2CNC[C@@H]2OCCNC2CC2c2cccc(F)c2)c1 (mixture of isomers) | 0.17 | 16 | 94 | 51 | 300
3 | Cc1cc(N)nc(C[C@@H]2CNC[C@@H]2OCCNC(C)Cc2cccc(F)c2)c1 (mixture of isomers) | – | – | 12 | – | 370
4 | Cc1cc(N)nc(C[C@@H]2CNC[C@@H]2OCCNC2CC2c2cccc(Cl)c2)c1 (mixture of isomers) | – | – | 12 | – | 370
